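Tested at 5 concentrations; 48 h exposure; 96-well plates; endpoints linearly interpolated, else capped at highest concentration. Definition used: TGI = concentration required for complete inhibition of growth.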
How the values were obtained:
Assay in all cases: growth of human tumour cells (NCI), 48 h
[1] = tested on: RXF 393 renal
[2] = tested on: HCC-2998 colon
[3] = tested on: UACC-62 melanoma
[4] = tested on: SF-295 CNS
[5] = tested on: HL-60(TB) leukemia
[6] = tested on: OVCAR-5 ovarian
[7] = tested on: OVCAR-4 ovarian
[8] = tested on: SK-MEL-5 melanoma
[9] = tested on: SK-MEL-28 melanoma
[10] = tested on: NCI-H226 lung
[11] = tested on: NCI-H522 lung
[12] = tested on: LOX IMVI melanoma
[13] = tested on: EKVX NSCLC
[14] = tested on: HS 578T breast
[15] = tested on: SK-MEL-2 melanoma
[16] = tested on: BT-549 breast
[17] = tested on: COLO 205 colon
[18] = tested on: MDA-MB-435
[19] = tested on: A498 renal

Row | SMILES | TGI [1] [µM] | TGI [2] [µM] | TGI [3] [µM] | TGI [4] [µM] | TGI [5] [µM] | TGI [6] [µM] | TGI [7] [µM] | TGI [8] [µM] | TGI [9] [µM] | TGI [10] [µM] | TGI [11] [µM] | TGI [12] [µM] | TGI [13] [µM] | TGI [14] [µM] | TGI [15] [µM] | TGI [16] [µM] | TGI [17] [µM] | TGI [18] [µM] | TGI [19] [µM]
1 | C=C(Nc1nc2ccc(C)cc2s1)C(=O)C(CC)C(=O)C(CC)CC1C(=O)NC(=O)NC1=O (stereo not drawn) | > 100 | > 100 | > 100 | > 100 | > 100 | > 100 | > 100 | > 100 | > 100 | > 100 | > 100 | > 100 | > 100 | > 100 | > 100 | > 100 | > 100 | > 100 | 
2 | Cc1c2cccc-2c(OCCO)cc2c3ccccc3n(C)c12 | > 100 | 14.6 | 17.5 | 16.9 | 7.19 | 16.1 | 15.1 | 5.77 | 21.4 | 24.2 | 4.8 | 8.15 | 8.69 | 7.15 | 12.8 | 13.4 | 3.24 | 25.2 | 24
3 | NCC(=O)Nc1ccc(S(=O)(=O)O)c2cc(S(=O)(=O)O)cc(S(=O)(=O)O)c12 | > 100 | > 100 | > 100 | > 100 | > 100 | > 100 | > 100 | > 100 | > 100 | > 100 | > 100 | > 100 | > 100 | > 100 | > 100 | > 100 | > 100 | > 100 | > 100
4 | O=C(NNC(=O)c1ccccc1O)c1cccc(Br)c1 | > 100 | > 100 | > 100 | > 100 | > 100 | > 100 | > 100 | > 100 | > 100 | > 100 | 83.3 | > 100 | > 100 | > 100 | > 100 | > 100 | > 100 | > 100 | > 100
5 | CCC(=O)O[C@H]1CC[C@H]2[C@@H]3CCC4=C/C(=N/OC(=O)c5cccc6cc7ccccc7nc56)CC[C@]4(C)[C@H]3CC[C@]12C | > 100 | > 100 | > 100 |  | > 100 | > 100 | > 100 | 31.5 | > 100 | > 100 | > 100 | > 100 | > 100 | > 100 | > 100 | > 100 | > 100 | > 100 | > 100
6 | CC(=O)OCC1OC(n2c(C)cc(C)c(C#N)c2=S)C(OC(C)=O)C(OC(C)=O)C1OC(C)=O (stereo not drawn) | > 100 | > 100 | > 100 | > 100 | > 100 | > 100 | > 100 | > 100 | > 100 | > 100 | > 100 | > 100 |  | > 100 | > 100 | > 100 | > 100 | > 100 | > 100
7 | N#Cc1c(-c2ccc(Cl)cc2)c(C#N)c(=O)n(NS(=O)(=O)c2ccccc2)c1O | 69.6 | 35 | 29.6 | > 100 | 41.3 | > 100 | > 100 | 32.3 | > 100 | > 100 | > 100 | 30.7 | > 100 | 63.9 | 44 | 32.8 | > 100 | > 100 | 70.1
8 | CC(Oc1ccc(Cl)cc1Cl)C(=O)NN1C(=O)CSC1c1ccccc1 (stereo not drawn) | > 100 | > 100 | > 100 | > 100 | 77.9 | > 100 | > 100 | > 100 | > 100 | 64.1 | > 100 | > 100 | > 100 | > 100 | > 100 | 46.5 | > 100 | > 100 | > 100
9 | CC1OC(OC2C(OC(=O)[C@]34CCC(C)(C)C[C@H]3C3=CC[C@@H]5[C@@]6(C)CC[C@H](OC7OC(CO)C(O)C(O)C7OC7OC(CO)C(O)C(O)C7O)C(C)(C)[C@@H]6CC[C@@]5(C)[C@]3(C)CC4)OCC(O)C2O)C(O)C(OC2OCC(O)C(O)C2O)C1OC1OCC(O)C(OC2OCC(O)C(O)C2O)C1O (stereo partly drawn) | 55.5 | 4.38 | 30.2 | 21.4 | 10.8 | 23.5 | > 61.6 | 23.3 | 4.85 | 24.7 | 9.56 | > 74.6 | 17.1 | 50.9 | 24.1 | 31.4 | 8.16 | 5.6 | 5.11
10 | CCCC(=O)N1CCN(c2ccc3c(c2)OC(C)O3)CC1 (stereo not drawn) | > 100 | > 100 | > 100 | > 100 |  | > 100 | > 100 | > 100 | > 100 | > 100 | > 100 |  | > 100 | > 100 |  | > 100 | > 100 | > 100 | > 100
11 | Nc1ccccc1N=Cc1cc2cc([N+](=O)[O-])ccc2s1 | 28.7 | 54.6 | 38.1 | > 100 | 32 | > 100 |  | > 100 | 57.8 |  | > 100 | 97.9 | 45.1 | 41.8 | 37.3 | 52.9 | 45.5 | > 100 | 32.5
12 | Cn1c2ccccc2c(=O)c2cccc(C(=O)NC(CS)C(=O)O)c21 (stereo not drawn) |  | > 100 | > 100 | > 100 | 38.9 | > 100 | > 100 | > 100 | > 100 | > 100 |  | > 100 | > 100 | > 100 | > 100 | > 100 | > 100 | > 100 | > 100
